Earlier results on two compounds are cited in patent publication US10300065B2, “Method of treating or prevention of atherothrombotic events in patients with history of myocardial infarction” (ASTRAZENECA AB, priority 2015, dated 2019).

For data set [1] the following is noted: human, in vivo, po; cited from earlier work.
Data set [2] has as its system patients with acute coronary syndrome. Particulars: PLATO, cited from earlier work.

With `CCCSc1nc(N[C@@H]2C[C@H]2c2ccc(F)c(F)c2)c2nnn([C@@H]3C[C@H](O)[C@@H](O)[C@H]3O)c2n1` [AR-C124910XX], the “AUC and cmax of crushed tablets relative to whole tablets (bioequivalence)” value in data set [1] is reported as 80-125%.

`COC(=O)[C@H](c1ccccc1Cl)N1CCc2sccc2C1` [clopidogrel]: the “serum uric acid level increase from baseline” value in data set [2] (clopidogrel) is on record as “approximately 0.2 mg/dL”. In addition, in data set [2] (each treatment group), the reports of gout was 0.6%.
